Results: ChEMBL document CHEMBL5550201, “Discovery of a Highly Potent, Selective and Efficacious USP7 Degrader for the Treatment of Acute Lymphoblastic Leukemia” (J Med Chem, 2024)
pIC50: −log10 of the molar value. The source made the active and inactive calls. No cut-off for these calls is given here.

Key:
[1] = molecular target: T1, von Hippel-Lindau disease tumor suppressor/Ubiquitin carboxyl-terminal hydrolase 7 (Homo sapiens, UniProt Q93009+P40337); test: PROTACT activity at USP7/VHL in human RS4;11 cells assessed as protein degradation at 10 nM measured after 24 hrs by Western blot analysis relative to control; type: cell-based
[2] = molecular target: T1, von Hippel-Lindau disease tumor suppressor/Ubiquitin carboxyl-terminal hydrolase 7; test: PROTACT activity at USP7/VHL in human RS4;11 cells assessed as protein degradation at 100 nM measured after 24 hrs by Western blot analysis relative to control; type: cell-based
[3] = molecular target: Protein cereblon/Ubiquitin carboxyl-terminal hydrolase 7 (Homo sapiens, UniProt Q93009+Q96SW2); test: PROTACT activity at USP7/CRBN in human CAL-33 cells assessed as protein degradation measured after 72 hrs by immune blot analysis; type: cell-based
[4] = tested on: MDA-MB-468; test: Antiproliferative activity against human MDA-MB-468 cells assessed as cell viability measured after 6 days by Celltiter glo2.0 cell viability assay; type: functional, cell-based; settings: MDA-MB-468, 144 h
[5] = tested on: BT-549; test: Antiproliferative activity against human BT-549 cells assessed as cell viability measured after 6 days by Celltiter glo2.0 cell viability assay; type: functional, cell-based; settings: BT-549, 144 h
[6] = molecular target: T1, von Hippel-Lindau disease tumor suppressor/Ubiquitin carboxyl-terminal hydrolase 7; test: PROTACT activity at USP7/VHL in human RS4;11 cells assessed as protein degradation at 10 to 100 nM measured after 12 hrs by Western blot analysis; type: cell-based; settings: dose 10-100 nM
[7] = molecular target: T1, von Hippel-Lindau disease tumor suppressor/Ubiquitin carboxyl-terminal hydrolase 7; test: PROTACT activity at USP7/VHL in human REH cells assessed as protein degradation at 10 to 100 nM measured after 12 hrs by Western blot analysis; type: cell-based; settings: dose 10-100 nM
[8] = molecular target: T1, von Hippel-Lindau disease tumor suppressor/Ubiquitin carboxyl-terminal hydrolase 7; test: PROTACT activity at USP7/VHL in human OCI-Ly10 cells assessed as protein degradation at 10 to 100 nM measured after 12 hrs by Western blot analysis; type: cell-based; settings: dose 10-100 nM
[9] = tested on: RS4-11; test: Antiproliferative activity against human RS4-11 cells with wild type p53 assessed as cell viability measured after 3 days by PMS-MTS assay; type: functional, cell-based; settings: RS4-11, 72 h
[10] = tested on: RS4-11; test: Antiproliferative activity against human RS4-11 cells with shp53 assessed as cell viability measured after 7 days by PMS-MTS assay; type: functional, cell-based; settings: RS4-11, 168 h
[11] = tested on: REH; test: Antiproliferative activity against human REH cells with wild type p53 assessed as cell viability measured after 3 days by PMS-MTS assay; type: functional, cell-based; settings: 72 h
[12] = molecular target: von Hippel-Lindau disease tumor suppressor/USP7; test: PROTACT activity at USP7 (unknown origin) /E3 ligase (unknown origin) assessed as protein degradation

T1 sequence (P40337 whole entry, looked up): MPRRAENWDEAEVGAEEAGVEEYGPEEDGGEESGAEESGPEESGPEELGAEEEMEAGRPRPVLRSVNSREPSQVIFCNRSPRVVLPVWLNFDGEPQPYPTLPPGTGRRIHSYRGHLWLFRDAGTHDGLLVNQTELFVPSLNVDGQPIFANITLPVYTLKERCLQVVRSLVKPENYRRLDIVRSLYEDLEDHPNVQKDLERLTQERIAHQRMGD
T1 sequence (Q93009 whole entry, looked up): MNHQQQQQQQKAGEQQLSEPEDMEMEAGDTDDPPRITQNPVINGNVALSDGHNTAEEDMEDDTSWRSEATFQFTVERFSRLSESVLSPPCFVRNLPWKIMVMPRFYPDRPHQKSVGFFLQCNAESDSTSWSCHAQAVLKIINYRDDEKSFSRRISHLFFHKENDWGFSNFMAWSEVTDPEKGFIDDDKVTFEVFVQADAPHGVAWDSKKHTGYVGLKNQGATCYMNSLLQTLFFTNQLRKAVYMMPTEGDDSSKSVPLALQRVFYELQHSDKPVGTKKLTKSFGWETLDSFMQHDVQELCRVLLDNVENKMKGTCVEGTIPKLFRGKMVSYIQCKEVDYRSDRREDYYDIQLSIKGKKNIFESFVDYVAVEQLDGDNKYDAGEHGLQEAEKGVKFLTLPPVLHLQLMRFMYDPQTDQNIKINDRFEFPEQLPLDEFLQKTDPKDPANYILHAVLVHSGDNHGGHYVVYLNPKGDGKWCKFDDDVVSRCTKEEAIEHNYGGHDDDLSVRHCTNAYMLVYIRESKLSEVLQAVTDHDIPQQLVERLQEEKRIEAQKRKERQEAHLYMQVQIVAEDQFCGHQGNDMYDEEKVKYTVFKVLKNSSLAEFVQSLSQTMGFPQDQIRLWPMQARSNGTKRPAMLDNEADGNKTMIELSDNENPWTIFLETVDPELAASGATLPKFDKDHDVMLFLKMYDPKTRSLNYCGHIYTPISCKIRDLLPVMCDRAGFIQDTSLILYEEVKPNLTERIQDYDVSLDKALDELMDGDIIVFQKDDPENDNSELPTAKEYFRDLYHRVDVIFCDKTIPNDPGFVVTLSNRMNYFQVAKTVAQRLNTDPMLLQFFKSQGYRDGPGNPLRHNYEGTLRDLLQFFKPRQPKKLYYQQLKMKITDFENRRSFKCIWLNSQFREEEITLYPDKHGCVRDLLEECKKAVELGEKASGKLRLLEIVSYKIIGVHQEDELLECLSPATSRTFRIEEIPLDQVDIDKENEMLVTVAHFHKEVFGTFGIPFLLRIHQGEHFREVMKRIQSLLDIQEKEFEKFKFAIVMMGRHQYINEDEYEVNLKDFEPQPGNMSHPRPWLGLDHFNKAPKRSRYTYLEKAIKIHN
Sequence of Protein cereblon/Ubiquitin carboxyl-terminal hydrolase 7 (Q93009 whole entry): as the sequence (Q93009 whole entry, looked up) above
Sequence of Protein cereblon/Ubiquitin carboxyl-terminal hydrolase 7 (Q96SW2 whole entry): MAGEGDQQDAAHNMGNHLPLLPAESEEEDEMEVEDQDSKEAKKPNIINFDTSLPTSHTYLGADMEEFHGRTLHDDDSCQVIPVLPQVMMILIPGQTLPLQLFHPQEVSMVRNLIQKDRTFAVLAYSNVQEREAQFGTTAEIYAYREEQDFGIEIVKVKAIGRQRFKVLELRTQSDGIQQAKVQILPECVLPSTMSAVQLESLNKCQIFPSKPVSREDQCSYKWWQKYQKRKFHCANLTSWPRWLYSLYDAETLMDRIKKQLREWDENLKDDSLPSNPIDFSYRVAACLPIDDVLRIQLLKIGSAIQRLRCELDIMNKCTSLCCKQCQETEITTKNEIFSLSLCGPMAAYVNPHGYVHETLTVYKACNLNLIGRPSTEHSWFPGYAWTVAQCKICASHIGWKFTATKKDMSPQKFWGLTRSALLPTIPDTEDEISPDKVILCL

SMILES | Activity [1] [%] | Activity [2] [%] | other results
Cc1ncsc1-c1ccc([C@H](C)NC(=O)[C@@H]2C[C@@H](O)CN2C(=O)[C@@H](c2cc(N3CCC(N4CCC(NCc5ccc(-c6c7ncn(CC8(O)CCN(C(=O)C[C@@H](C)c9ccccc9)CC8)c(=O)c7nn6C)cc5)CC4)CC3)no2)C(C)C)cc1 | 25.6 | 37.3 | –
Cc1ncsc1-c1ccc([C@H](C)NC(=O)[C@@H]2C[C@@H](O)CN2C(=O)[C@@H](NC(=O)CCOCCOCCNCc2ccc(-c3c4ncn(CC5(O)CCN(C(=O)C[C@@H](C)c6ccccc6)CC5)c(=O)c4nn3C)cc2)C(C)(C)C)cc1 | 12.8 | 26.8 | –
Cc1ncsc1-c1ccc([C@H](C)NC(=O)[C@@H]2C[C@@H](O)CN2C(=O)[C@@H](c2cc(N3CCC(CN4CC(NCc5ccc(-c6c7ncn(CC8(O)CCN(C(=O)C[C@@H](C)c9ccccc9)CC8)c(=O)c7nn6C)cc5)C4)CC3)no2)C(C)C)cc1 | 0.4 | 60.2 | –
O=C1CCC(N2Cc3c(CCCCCN4CCN(CCC(=O)Nc5ccc6c(=O)n(CC7(O)CCN(C(=O)C(CCCNC(=O)c8ccc9c(Cl)c%10c(nc9c8)CCCC%10)Cc8ccccc8)CC7)cnc6c5)CC4)cccc3C2=O)C(=O)N1 (configuration not stated) | – | – | DC50 [3]: 4.3 nM; pIC50 [4]: 5.74; pIC50 [5]: 5.55
Cc1ncsc1-c1ccc([C@H](C)NC(=O)[C@@H]2C[C@@H](O)CN2C(=O)[C@@H](c2cc(N3CCC(CN4CC(CNCc5ccc(-c6c7ncn(CC8(O)CCN(C(=O)C[C@@H](C)c9ccccc9)CC8)c(=O)c7nn6C)cc5)C4)CC3)no2)C(C)C)cc1 | 35 | 55.1 | –
Cc1ncsc1-c1ccc([C@H](C)NC(=O)[C@@H]2C[C@@H](O)CN2C(=O)[C@@H](c2cc(N3CCC(N4CC(NCc5ccc(-c6c7ncn(CC8(O)CCN(C(=O)C[C@@H](C)c9ccccc9)CC8)c(=O)c7nn6C)cc5)C4)CC3)no2)C(C)C)cc1 | 16 | 16.9 | –
Cc1ncsc1-c1ccc([C@H](C)NC(=O)[C@@H]2C[C@@H](O)CN2C(=O)[C@@H](c2cc(N3CCC(CN4CCC(NCc5ccc(-c6c7ncn(CC8(O)CCN(C(=O)C[C@@H](C)c9ccccc9)CC8)c(=O)c7nn6C)cc5)CC4)CC3)no2)C(C)C)cc1 | 22.2 | 37.7 | –
Cc1ncsc1-c1ccc([C@H](C)NC(=O)[C@@H]2C[C@@H](O)CN2C(=O)[C@@H](NC(=O)CCOCCOCCOCCOCCNCc2ccc(-c3c4ncn(CC5(O)CCN(C(=O)C[C@@H](C)c6ccccc6)CC5)c(=O)c4nn3C)cc2)C(C)(C)C)cc1 | 13 | 44.4 | –
Cc1ncsc1-c1ccc([C@H](C)NC(=O)[C@@H]2C[C@@H](O)CN2C(=O)[C@@H](c2cc(N3CCC(CN4CCC(CNCc5ccc(-c6c7ncn(CC8(O)CCN(C(=O)C[C@@H](C)c9ccccc9)CC8)c(=O)c7nn6C)cc5)CC4)CC3)no2)C(C)C)cc1 | 50.8 | 73.5 | –
Cc1ncsc1-c1ccc([C@H](C)NC(=O)[C@@H]2C[C@@H](O)CN2C(=O)[C@@H](NC(=O)CCCCCNCc2ccc(-c3c4ncn(CC5(O)CCN(C(=O)C[C@@H](C)c6ccccc6)CC5)c(=O)c4nn3C)cc2)C(C)(C)C)cc1 | 38 | 56.5 | –
Cc1ncsc1-c1ccc([C@H](C)NC(=O)[C@@H]2C[C@H](O)CN2C(=O)[C@@H](c2cc(N3CCN(Cc4ccc(-c5c6ncn(CC7(O)CCN(C(=O)C[C@@H](C)c8ccccc8)CC7)c(=O)c6nn5C)cc4)CC3)no2)C(C)C)cc1 | – | – | Activity [6]: inactive; Activity [7]: inactive; Activity [8]: inactive; pIC50 [9]: 6.06; pIC50 [10]: < 4.70; pIC50 [11]: 5.13
Cc1ncsc1-c1ccc([C@H](C)NC(=O)[C@@H]2C[C@@H](O)CN2C(=O)[C@@H](c2cc(N3CCC(N4CC(CNCc5ccc(-c6c7ncn(CC8(O)CCN(C(=O)C[C@@H](C)c9ccccc9)CC8)c(=O)c7nn6C)cc5)C4)CC3)no2)C(C)C)cc1 | 15.5 | 25.6 | –
Cc1ncsc1-c1ccc([C@H](C)NC(=O)[C@@H]2C[C@@H](O)CN2C(=O)[C@@H](c2cc(N3CCC(CNCc4ccc(-c5c6ncn(CC7(O)CCN(C(=O)C[C@@H](C)c8ccccc8)CC7)c(=O)c6nn5C)cc4)CC3)no2)C(C)C)cc1 | 69.5 | 91.3 | –
C[C@H](CC(=O)N1CCC(O)(Cn2cnc3c(-c4ccc(CN)cc4)n(C)nc3c2=O)CC1)c1ccccc1 | – | – | pIC50 [9]: 7.16; pIC50 [10]: < 4.70; pIC50 [11]: 7.69
Cc1ncsc1-c1ccc([C@H](C)NC(=O)[C@@H]2C[C@@H](O)CN2C(=O)[C@@H](NC(=O)CCCCCCCCCCCNCc2ccc(-c3c4ncn(CC5(O)CCN(C(=O)C[C@@H](C)c6ccccc6)CC5)c(=O)c4nn3C)cc2)C(C)(C)C)cc1 | 31.9 | 75.5 | –
Cc1ncsc1-c1ccc([C@H](C)NC(=O)[C@@H]2C[C@@H](O)CN2C(=O)[C@@H](NC(=O)CCOCCOCCOCCNCc2ccc(-c3c4ncn(CC5(O)CCN(C(=O)C[C@@H](C)c6ccccc6)CC5)c(=O)c4nn3C)cc2)C(C)(C)C)cc1 | 26.1 | 33.6 | –
C[C@H](CC(=O)N1CCC(O)(Cn2cnc3c(-c4ccc(CNCCCCCCCCCCCNc5cccc6c5C(=O)N(C5CCC(=O)NC5=O)C6=O)cc4)n(C)nc3c2=O)CC1)c1ccccc1 (some centres not stated) | – | – | DC50 [12]: ~33 nM

Now from value to compound, other results behind:

Activity [1] [%] | Activity [2] [%] | SMILES | other results
26.1 | 39.1 | Cc1ncsc1-c1ccc([C@H](C)NC(=O)[C@@H]2C[C@@H](O)CN2C(=O)[C@@H](NC(=O)CCCCCCCCNCc2ccc(-c3c4ncn(CC5(O)CCN(C(=O)C[C@@H](C)c6ccccc6)CC5)c(=O)c4nn3C)cc2)C(C)(C)C)cc1 | –
29.2 | 55.1 | Cc1ncsc1-c1ccc([C@H](C)NC(=O)[C@@H]2C[C@@H](O)CN2C(=O)[C@@H](NC(=O)CCCCCCCCCNCc2ccc(-c3c4ncn(CC5(O)CCN(C(=O)C[C@@H](C)c6ccccc6)CC5)c(=O)c4nn3C)cc2)C(C)(C)C)cc1 | –
46.9 | 58.1 | Cc1ncsc1-c1ccc([C@H](C)NC(=O)[C@@H]2C[C@@H](O)CN2C(=O)[C@@H](NC(=O)CCCCCCCNCc2ccc(-c3c4ncn(CC5(O)CCN(C(=O)C[C@@H](C)c6ccccc6)CC5)c(=O)c4nn3C)cc2)C(C)(C)C)cc1 | –
30.1 | 66.7 | Cc1ncsc1-c1ccc([C@H](C)NC(=O)[C@@H]2C[C@@H](O)CN2C(=O)[C@@H](NC(=O)CCCCCCCCCCNCc2ccc(-c3c4ncn(CC5(O)CCN(C(=O)C[C@@H](C)c6ccccc6)CC5)c(=O)c4nn3C)cc2)C(C)(C)C)cc1 | –
